Measured values reported in US6884802B2, “6-heteroarylphenanthridines” (ALTANA Pharma AG, priority 2000, dated 2005).

System: PDE4
Test: Inhibition of PDE4 activity ([3H]cAMP hydrolysis, cytosol from human neutrophils)
Format: biochemical
Conditions: 0.5 μM cAMP, Motapizone 1 μM included to suppress PDE3, 37° C.
Experimental: Method for Measuring Inhibition of PDE4 Activity
PDE4 activity was determined as described by Thompson et al. (Adv Cycl Nucl Res 10: 69-92, 1979) with some modifications (Bauer and Schwabe, Naunyn-Schmiedeberg's Arch Pharmacol 311: 193-198, 1980). At a final assay volume of 200 μl (96 well microtiter plates) the assay mixture contained 20 mM Tris (pH 7.4), 5 mM MgCl2, 0.5 μM cAMP, [^3H]cAMP (about 30,000 cpm/assay), the test compound and an aliquot of cytosol from human neutrophils which mainly contains PDE4 activity as described by Schudt et al. (Naunyn-Schmiedeberg's Arch Pharmacol 344: 682-690, 1991); the PDE3-specific inhibitor Motapizone (1 μM) was included to suppress PDE3 activity originating from contaminating platelets. Serial dilutions of the compounds were prepared in DMSO and further diluted 1:100 (v/v) in the assays to obtain the desired final concentrations of the inhibitors at a DMSO concentration of 1% (v/v) which by itself only slightly affected PDE4 activity.
After preincubation for 5 min at 37° C., the reaction was started by the addition of substrate (cAMP) and the assays were incubated for further 15 min at 37° C. 50 μl of 0.2 N HCl was added to stop the reaction and the assays were left on ice for about 10 min. Following incubation with 25 μg 5′-nucleotidase (Crotalus atrox snake venom) for 10 min at 37° C., the assays were loaded on QAE Sephadex A-25 (1 ml bed volume). The columns were eluted with 2 ml of 30 mM ammonium formiate (pH 6.0) and the eluate was counted for radioactivity. Results were corrected for blank values (measured in the presence of denatured protein) which were below 5% of total radioactivity. […] The IC50-values for the compounds according to the invention for the inhibition of the PDE4 activity were determined from the concentration-inhibition curves by nonlinear-regression.

Compound: COc1cc2c(cc1OC)[C@@H]1CCCC[C@@H]1N=C2c1cccs1 (relative stereo) [Compound 7, cis-8,9-Dimethoxy-6-(thiophen-2-yl)-1,2,3,4,4a,10b-hexahydrophenanthridine]
- Inhibition of PDE4 activity [measured as −logC50 (mol/l)]: 8.14 −log(mol/l)

Compound: COc1cc2c(cc1OC)[C@@H]1CCCC[C@@H]1N=C2c1ccc(C)s1 (relative stereo) [Compound 8, cis-8,9-Dimethoxy-6-(5-methyl-thiophen-2-yl)-1,2,3,4,4a,10b-hexahydrophenanthridine]
- Inhibition of PDE4 activity [measured as −logC50 (mol/l)]: 8.19 −log(mol/l)

Compound: COc1cc2c(cc1OC)[C@@H]1CCCC[C@@H]1N=C2c1ccsc1 (relative stereo) [Compound 9, cis-8,9-Dimethoxy-6-(thiophen-3-yl)-1,2,3,4,4a,10b-hexahydrophenanthridine]
- Inhibition of PDE4 activity [measured as −logC50 (mol/l)]: 7.45 −log(mol/l)

Compound: COc1cc2c(cc1OC)[C@@H]1CCCC[C@@H]1N=C2c1cc2ccccc2[nH]1.O=C(O)C(F)(F)F (relative stereo) [Compound 10, cis-8,9-Dimethoxy-6-(1H-indol-2-yl)-1,2,3,4,4a,10b-hexahydrophenanthridine trifluoroacetate]
- Inhibition of PDE4 activity [measured as −logC50 (mol/l)]: 8.19 −log(mol/l)

Compound: COc1cc2c(cc1OC)[C@@H]1CCCC[C@@H]1N=C2c1cc2cc(F)ccc2[nH]1.O=C(O)C(F)(F)F (relative stereo) [Compound 11, cis-8,9-Dimethoxy-6-(5-fluoro-1H-indol-2-yl)-1,2,3,4,4a,10b-hexahydrophenanthridine trifluoroacetate]
- Inhibition of PDE4 activity [measured as −logC50 (mol/l)]: 8.14 −log(mol/l)

Compound: COc1ccc2cc(C3=N[C@H]4CCCC[C@H]4c4cc(OC)c(OC)cc43)[nH]c2c1.O=C(O)C(F)(F)F (relative stereo) [Compound 12, cis-8,9-Dimethoxy-6-(6-methoxy-1H-indol-2-yl)-1,2,3,4,4a,10b-hexahydrophenanthridine trifluoroacetate]
- Inhibition of PDE4 activity [measured as −logC50 (mol/l)]: 8.27 −log(mol/l)

Compound: COc1cc2c(cc1OC)[C@@H]1CCCC[C@@H]1N=C2c1ccc2ccccc2n1 (relative stereo) [Compound 15, cis-8,9-Dimethoxy-6-(quinolin-2-yl)-1,2,3,4,4a,10b-hexahydrophenanthridine]
- Inhibition of PDE4 activity [measured as −logC50 (mol/l)]: 7.68 −log(mol/l)

Compound: COc1cc2c(cc1OC)[C@@H]1CCCC[C@@H]1N=C2c1occc1C (relative stereo) [Compound 16, cis-8,9-Dimethoxy-6-(3-methyl-furan-2-yl)-1,2,3,4,4a,10b-hexahydrophenanthridine]
- Inhibition of PDE4 activity [measured as −logC50 (mol/l)]: 7.42 −log(mol/l)

Compound: COc1cc2c(cc1OC)[C@@H]1CCCC[C@@H]1N=C2c1cc2ccccc2s1 (relative stereo) [Compound 17, cis-8,9-Dimethoxy-6-(benzo[b]thiophen-2-yl)-1,2,3,4,4a,10b-hexahydrophenanthridine]
- Inhibition of PDE4 activity [measured as −logC50 (mol/l)]: 8.84 −log(mol/l)

Compound: COc1cc2c(cc1OC)[C@@H]1CCCC[C@@H]1N=C2c1oc2ccccc2c1C (relative stereo) [Compound 20, cis-8,9-Dimethoxy-6-(3-methyl-benzofuran-2-yl)-1,2,3,4,4a,10b-hexahydrophenanthridine]
- Inhibition of PDE4 activity [measured as −logC50 (mol/l)]: 8.53 −log(mol/l)

Compound: COc1cc2c(cc1OC)[C@@H]1CCCC[C@@H]1N=C2c1cc2cccc(OC)c2o1 (relative stereo) [Compound 21, cis-8,9-Dimethoxy-6-(7-methoxy-benzofuran-2-yl)-1,2,3,4,4a,10b-hexahydrophenanthridine]
- Inhibition of PDE4 activity [measured as −logC50 (mol/l)]: 8.51 −log(mol/l)

Compound: COc1ccc2oc(C3=N[C@H]4CCCC[C@H]4c4cc(OC)c(OC)cc43)cc2c1 (relative stereo) [Compound 23, cis-8,9-Dimethoxy-6-(5-methoxy-benzofuran-2-yl)-1,2,3,4,4a,10b-hexahydrophenanthridine]
- Inhibition of PDE4 activity [measured as −logC50 (mol/l)]: 8.33 −log(mol/l)

Compound: COc1cc2c(cc1OC)[C@@H]1CCCC[C@@H]1N=C2c1ccnc2ccccc12 [Compound 1, (−)-cis-8,9-Dimethoxy-6-quinolin-4-yl-1,2,3,4,4a,10b-hexahydrophenanthridine]
- Inhibition of PDE4 activity [measured as −logC50 (mol/l)]: 7.4 −log(mol/l)
